Measurements taken from patent US20240000786A1, “COMPOSITION FOR ENHANCING INTRA-CELLULAR NITRIC OXIDE GENERATION” (INSTITUTE OF LIFE SCIENCES, priority 2020, published 2024).

Legend:
[1] = molecular target: T1, iNOS-NOSIP protein interaction (Homo sapiens, UniProt Q9Y314); test: SPR: inhibition of rNOSIP association with immobilized recombinant iNOS by iNOS peptides / small molecules; format: binding; conditions: for inhibition hierarchy of iNOS-NOSIP protein interaction: SPR, rank order; for Kd: Kd/Ka; for inhibition of binding of NOSIP with iNOS ligand by small molecules: rNOSIP 250 nM, small molecules 1 uM, SPR (FIG. 4)
T1 construct: made in house; host or cells: E. coli BL21 (DE3)
T1 sequence (Q9Y314 with tags, fused parts or gaps): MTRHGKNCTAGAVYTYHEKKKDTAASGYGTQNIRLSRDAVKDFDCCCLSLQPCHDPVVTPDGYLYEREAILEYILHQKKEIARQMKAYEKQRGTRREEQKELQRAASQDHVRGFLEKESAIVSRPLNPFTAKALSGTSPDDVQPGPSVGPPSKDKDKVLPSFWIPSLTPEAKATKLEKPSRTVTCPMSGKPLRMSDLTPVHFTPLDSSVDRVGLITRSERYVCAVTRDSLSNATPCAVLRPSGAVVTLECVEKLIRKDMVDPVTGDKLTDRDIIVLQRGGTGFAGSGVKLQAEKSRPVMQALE
Procedure: Four different iNOS peptides were synthesized commercially by China peptides and iNOS peptides were used for molecular interaction studies with immobilized recombinant iNOS purified protein. The iNOS peptides mediated inhibition of rNOSIP and riNOS protein association in Bio-Rad XPR 36 surface plasmon resonance biosensor instrument. […] 250 nM of iNOS peptides was used for inhibition assay with immobilized ligand(recombinant iNOS) in SPR analysis. Similar condition and concentration of small molecules were used for inhibition of recombinant protein association with immobilized ligand. […] The rNOSIP protein was incubated with iNOS derived peptide/small molecules for 30 minutes in ice for inhibition assay before the SPR application in our study. The molecular interaction was carried out at 20° C. and kinetic parameters were determined, after fitting the association and dissociation curves to a 1:1 (Langmuir)-binding model. An activated channel without immobilized ligand was used to evaluate nonspecific binding. The response curves were also recorded on control surfaces. Results were calculated after subtraction of the control values using the ProteOn Manager software.
The collected sensorgram data were processed by reference subtraction using double-referencing with the in-line blank buffer. The integrated ProteOn Manager software was used to fit the data with the Langmuir model describing a 1:1 binding stoichiometry. Ka is the association rate constant, Kd is the dissociation rate constant, and KD is the equilibrium dissociation constant, defined by the Kd/Ka ratio for the analytes-ligand binding.
The five small molecules bind with NOSIP and inhibit the association of recombinant NOSIP and recombinant iNOS. The rNOSIP protein was incubated with iNOS derived peptide or small molecules for 30 minutes in ice prior to SPR application. The molecular interaction was carried out at 20° C. and kinetic parameters were determined, after fitting the association and dissociation curves to a 1:1 (Langmuir)-binding model. An activated channel without immobilized ligand (recombinant iNOS) was used to evaluate nonspecific binding. The response curves were also recorded on control surfaces. Results were calculated after subtraction of the control values using the ProteOn Manager software.
The collected sensorgram data were processed by reference subtraction using double-referencing with the in-line blank buffer. The integrated ProteOn
Manager software was used to fit the data with the Langmuir model describing a 1:1 binding stoichiometry. Ka is the association rate constant, Kd is the dissociation rate constant, and KD is the equilibrium dissociation constant, defined by the Kd/Ka ratio for the analytes—ligand binding.

Mouse BMDMs = test: Nitric oxide production by individual small molecules in mouse BMDM; format: cell-based
rNOSIP = molecular target: T2, rNOSIP (Homo sapiens, UniProt Q9Y314); test: Isothermal titration calorimetry (ITC) of rNOSIP with small molecules / 18 mer iNOS peptide (PP2); format: binding; conditions: for ΔG / ΔH / −TΔS / Kd / N (Sites): ITC 25° C.; for Kd / N (Sites): small molecule/peptide in cell, NOSIP in syringe; for Fold Change (KD): ITC KD relative to iNOS-Peptide2 = 1; for SM binding affinity with NOSIP, hierarchy: ITC, rank order
T2 construct: made in house; host or cells: E. coli BL21 (DE3)
T2 sequence (Q9Y314 with tags, fused parts or gaps): T1 sequence (Q9Y314 with tags, fused parts or gaps)
Procedure: The 18 mer iNOS peptide (PP2) and small molecules were used for physical association of molecules in calorimetric analysis. The molecular association leads to thermodynamics changes such as Gibb's free energy change (ΔG), entropy change (ΔS), enthalpy change (ΔH) and number of binding sites (N) in interacting solution were investigated by isothermal calorimetry MICROCAL PEQ (Malvern) at 25° C. […] The experiment consisted of multiple injections and each injection contained 1.5 μl of binding solution (recombinant NOSIP solution) with 120 second spacing time between subsequent injections. Sequential titrations were carried out and the sample solution was continuously stirred at 270 rpm by the rotating paddle attached to the syringe needle. Multiple injections of NOSIP made into the sample cell containing interacting solution of peptide and small molecules. The titration curves were analyzed using the analysis software provided with the calorimeter.
The 18 mer iNOS peptide (PP2) and five small molecules were used to analyze physical association in calorimetric analysis. The molecular association leads to thermodynamics changes such as Gibb's free energy change (ΔG), entropy change (ΔS), enthalpy change (ΔH) and number of binding sites (N) in interacting solution were investigated by isothermal calorimetry MICROCAL PEQ (Malvern) at 25° C. […] The experiment consisted of multiple injections and each injection contained 1.5 μl of binding solution with 120 second spacing time between subsequent injections. Sequential titrations were carried out and the sample solution was continuously stirred at 270 rpm by the rotating paddle attached to the syringe needle. Multiple injections of NOSIP made into the sample cell containing interacting solution of peptide and small molecules. The titration curves were analyzed using the analysis software provided with the calorimeter.

human PBMCs = test: NO levels (Griess) in human PBMCs, small molecules alone or in combination; format: cell-based; conditions: 0.1 and 0.01 μM, 24 h
Procedure: PBMCs (1 million cells/ml) from healthy individuals' blood was isolated and were treated with or without NOSIP antagonists (either alone or mixture of equimolar concentration of all 5 small molecule antagonists at 0.1 and 0.01 μM) for 30 min in triplicate wells and incubated for 24 h at 37° C. The culture supernatants were analysed by […] for nitrite concentration using Griess reagent, and the NO levels are shown as mean percent increase over untreated control. The panel on the right top of FIG. 10 depict nitrite levels by individual small molecules in human PBMCs. […] Thus a combined mixture of 5 small molecules will be desirable for use in mouse as well as humans.

recombinant iNOS = molecular target: T3, recombinant iNOS (Homo sapiens, UniProt P35228); test: iNOS enzyme activity in presence of recombinant NOSIP, Griess reaction; format: biochemical; conditions: iNOS 0.5 μM, NOSIP 0.5 to 5 μM, substrate L-Arginine
T3 construct: made in house; host or cells: E. coli BL21 (DE3)
T3 sequence (P35228 with tags, fused parts or gaps limits assumed): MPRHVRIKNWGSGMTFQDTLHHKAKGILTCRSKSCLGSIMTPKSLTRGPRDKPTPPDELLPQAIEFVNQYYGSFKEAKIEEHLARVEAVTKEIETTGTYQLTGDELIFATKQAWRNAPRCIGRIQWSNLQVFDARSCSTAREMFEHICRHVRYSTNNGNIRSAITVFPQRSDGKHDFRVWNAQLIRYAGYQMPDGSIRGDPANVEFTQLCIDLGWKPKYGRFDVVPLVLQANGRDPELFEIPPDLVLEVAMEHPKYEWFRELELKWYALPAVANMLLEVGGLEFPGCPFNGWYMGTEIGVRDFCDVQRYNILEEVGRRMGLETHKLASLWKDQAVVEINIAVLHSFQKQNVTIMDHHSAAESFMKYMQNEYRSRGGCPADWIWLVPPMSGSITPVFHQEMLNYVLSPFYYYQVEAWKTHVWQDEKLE
Procedure: The human iNOS oxygenase domain (SEQ ID No.: 24) containing 424 nucleotide sequence and NOSIP gene (SEQ ID No.: 23) containing 301 nucleotide sequences were synthesized by GenScript and cloned in pET22b expression vector. The recombinant pET22b: iNOS and pET22b: NOSIP plasmid was used to transform competent E. coli BL21 (DE3) cells. The proteins were over expressed using 0.2 mM IPTG at 25° C. The harvested cells were resuspended and sonicated in 20 mM Tris-HCl, pH 7.5, 200 mM NaCl, 0.05% Triton X-100 and protease inhibitor (Sigma). The expressed proteins were purified by nickel nitrilotriacetic acid column using 250 mM imidazole and gel filtration chromatography. The protein was quantified by Bradford assay (Sigma) and integrity of purified protein was checked on 12% SDS-PAGE.
In a […] assay increasing concentrations of recombinant NOSIP were mixed with recombinant iNOS along with substrate L-Arginine and the resultant product, […] was quantified by using Griess reaction kit. […] Statistical significance was assessed by one way ANOVA, Tukey& #39;s Multiple Comparison Test.

[2] = analyte rNOSIP alone or + peptide/small molecule, ligand r iNOS, 20° C., 1:1 Langmuir
[3] = analyte rNOSIP alone or + peptide/small molecule, ligand r iNOS, 20° C.

CCN(c1ccccc1)S(=O)(=O)c1ccc(Cl)c(NC(=O)COC(=O)c2ccccc2SCC(=O)Nc2ccc3c(c2)OCO3)c1 [MCULE-8094061955, ({2-chloro-5-[ethyl(phenyl)sulfamoyl]phenyl}carbamoyl)methyl 2-({[(2H-1,3-benzodioxol-5-yl)carbamoyl]methyl}sulfanyl) benzoate]
inhibition hierarchy of iNOS-NOSIP protein interaction [1]: CC4>CC11>CC6>CC5>CC13>iNOS Peptide 2 | Ka(1/Ms) [1, 2]: 6.7e^−01 1/Ms | Kd [1, 3]: 809000 nM | inhibition of binding of NOSIP with iNOS ligand by small molecules [1]: inhibit the binding of NOSIP with iNOS ligand | nitric oxide produced, individual small molecules compared (Mouse BMDMs): more effective with mouse cells | ΔG (rNOSIP): -8.61 kcal/mol | ΔH (rNOSIP): -9.07 ± 0.251 kcal/mol | −TΔS (rNOSIP): 0.459 kcal/mol | Kd (rNOSIP): 493 ± 63.2 nM | N (Sites) (rNOSIP): 0.993 | Fold Change (KD) (rNOSIP): 0.899 | SM binding affinity with NOSIP, hierarchy (rNOSIP): CC4>CC11>CC6>CC5>CC13>Peptide 2 (iNOS)

COc1cc(C)ccc1OCc1nc(C(=O)NCc2n[nH]c3c2CCC3)co1 [MCULE-4640800528, N-({1H,4H,5H,6H-cyclopenta[c]pyrazol-3-yl}methyl)-2[(2-methoxy-4-methylphenoxy)methyl]-1,3-oxazole-4-carboxamide]
inhibition hierarchy of iNOS-NOSIP protein interaction [1]: CC4>CC11>CC6>CC5>CC13>iNOS Peptide 2 | kon ([1]; analyte rNOSIP alone or + peptide/small molecule, ligand r iNOS, 20° C., 1:1 Langmuir, read-out: Ka): 0.563 M⁻¹ s⁻¹ | Kd [1, 3]: 870000 nM | inhibition of binding of NOSIP with iNOS ligand by small molecules [1]: inhibit the binding of NOSIP with iNOS ligand | ΔG (rNOSIP): -8.70 kcal/mol | ΔH (rNOSIP): -8.54 ± 0.255 kcal/mol | −TΔS (rNOSIP): -0.159 kcal/mol | Kd (rNOSIP): 420 ± 57.5 nM | N (Sites) (rNOSIP): 1.04 | Fold Change (KD) (rNOSIP): 0.766 | SM binding affinity with NOSIP, hierarchy (rNOSIP): CC4>CC11>CC6>CC5>CC13>Peptide 2 (iNOS) | nitric oxide produced, individual small molecules compared (human PBMCs): more effective than molecules in human cells

B1: NOSIP: recombinant Nitric oxide synthase interacting protein expressed in E. coli BL21 (DE3) (protein, UniProt Q9Y314 1-301, looked up)
Nitric oxide …: MTRHGKNCTAGAVYTYHEKKKDTAASGYGTQNIRLSRDAVKDFDCCCLSLQPCHDPVVTPDGYLYEREAILEYILHQKKEIARQMKAYEKQRGTRREEQKELQRAASQDHVRGFLEKESAIVSRPLNPFTAKALSGTSPDDVQPGPSVGPPSKDKDKVLPSFWIPSLTPEAKATKLEKPSRTVTCPMSGKPLRMSDLTPVHFTPLDSSVDRVGLITRSERYVCAVTRDSLSNATPCAVLRPSGAVVTLECVEKLIRKDMVDPVTGDKLTDRDIIVLQRGGTGFAGSGVKLQAEKSRPVMQA
Ka(1/Ms) [1, 2]: 9.57e^+04 1/Ms | Kd [1, 3]: 7.11 nM | inhibition of iNOS enzyme activity (Griess) (recombinant iNOS): inhibits enzyme activity of iNOS
